Measured values from patent US11530229B2, “Cyano cyclobutyl compounds for CBL-B inhibition and uses thereof” (Nurix Therapeutics, Inc., priority 2019, dated 2022).
Read-outs that look alike come from different tables or passages of the source.

What was measured:
[1] = tested on: primary human total T-cells; experiment: T-cell activation, IL-2 secretion, Biological Example 2; format: cell-based; conditions: 48 hours, fold change over baseline; for fold induction at 0.3 µM: 0.3 μM inhibitor; for fold induction at 1 µM: 1 μM inhibitor; for fold induction at 3 µM: 3 μM inhibitor
Cbl-b = Cbl-b (Homo sapiens (Human), UniProt Q13191); experiment: Cbl-b displacement assay (Cbl-b inhibition assay), Biological Example 1; format: binding
Cbl-b, sequence (Q13191 36-427): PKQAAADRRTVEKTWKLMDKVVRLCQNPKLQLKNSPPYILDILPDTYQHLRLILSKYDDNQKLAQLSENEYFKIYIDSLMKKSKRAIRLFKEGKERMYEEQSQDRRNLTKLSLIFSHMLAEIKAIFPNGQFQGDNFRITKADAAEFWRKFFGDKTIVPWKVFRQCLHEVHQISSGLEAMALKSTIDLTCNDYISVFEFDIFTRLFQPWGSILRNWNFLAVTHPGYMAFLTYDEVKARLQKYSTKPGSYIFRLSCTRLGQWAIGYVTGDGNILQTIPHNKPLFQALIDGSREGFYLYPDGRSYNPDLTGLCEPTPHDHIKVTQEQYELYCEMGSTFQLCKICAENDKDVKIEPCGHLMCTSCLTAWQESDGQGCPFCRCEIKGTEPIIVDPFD
Procedure, shortened: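 Probe displacement read as TR-FRET (520/620 nm) after 1 h with 2 nM streptavidin-terbium and 150 nM BODIPY FL-labelled inhibitor probe, about EC40. Before that, compound in 1% DMSO sat 1 h at room temperature with N-Avitag biotinylated Cbl-b 36–427, 0.5 nM (High) or 0.125 nM (Low), in pH 7.5 HEPES buffer.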

[2] = tested on: primary human total T-cells; experiment: T-cell activation, CD25 surface staining, Biological Example 2; format: cell-based; conditions: 48 hours, fold change over baseline; for fold induction at 0.3 µM: 0.3 μM inhibitor; for fold induction at 1 µM: 1 μM inhibitor; for fold induction at 3 µM: 3 μM inhibitor
[3] = anti-CD3 and anti-CD28 co-stimulation
[4] = anti-CD3 and anti-CD28 co-stimulation, read-out: IL-2 secretion CD3/CD28 1 μM
[5] = anti-CD3 stimulation alone, read-out: IL-2 secretion CD3 1 μM
[6] = 0.125 nM Cbl-b final concentration (Low), read-out: Cbl-b activity IC50 (Low)
[7] = anti-CD3 and anti-CD28 co-stimulation, read-out: CD25 staining CD3/CD28 1 μM
[8] = anti-CD3 stimulation alone, read-out: CD25 staining CD3 1 μM
[9] = read-out: IC50 values in the Cbl-b inhibition assay of Biological Example 1

| Compound | fold induction at 0.3 µM [1, 3] | fold induction at 1 µM [1, 4] | fold induction at 1 µM [1, 5] | fold induction at 3 µM ([1]; anti-CD3 stimulation alone) | IC50 (Cbl-b; [6]) | fold induction at 0.3 µM [2, 3] | fold induction at 1 µM [2, 7] | fold induction at 1 µM [2, 8] | fold induction at 3 µM ([2]; anti-CD3 stimulation alone) | IC50 (Cbl-b; [9]) | IC50 (Cbl-b; 0.5 nM Cbl-b final concentration (High), read-out: Cbl-b activity IC50 (High)) |
| --- | --- | --- | --- | --- | --- | --- | --- | --- | --- | --- | --- |
| CC1CCCN(Cc2cc3c(c(C(F)(F)F)c2)CN(c2cccc([C@]4(Cc5nncn5C)C[C@@H](C#N)C4)c2)C3=O)CC1 (stereo partly drawn) [Compound 13, (1r,3r)-3-((4-methyl-4H-1,2,4-triazol-3-yl)methyl)-3-(3-(6-((4-methylazepan-1-yl)methyl)-1-oxo-4-(trifluoromethyl)isoindolin-2-yl)phenyl)cyclobutane-1-carbonitrile] | 15 to 20 | 15 to 20 | 0.4 to 0.85 | 0.4 to 0.85 | 2 to 5 nM | 1.24 to 1.39 | 1.24 to 1.39 | > 1.15 | 1 to 1.15 |  |  |
| CCC1COCCN(Cc2cc3c(c(C(F)(F)F)c2)CN(c2cccc([C@]4(Cc5nncn5C)C[C@@H](C#N)C4)c2)C3=O)C1 (stereo partly drawn) [Compound 43, (1r,3r)-3-(3-(6-((6-ethyl-1,4-oxazepan-4-yl)methyl)-1-oxo-4-(trifluoromethyl)isoindolin-2-yl)phenyl)-3-((4-methyl-4H-1,2,4-triazol-3-yl)methyl)cyclobutane-1-carbonitrile] | ≤ 15 | > 20 | 0.4 to 0.85 | 0.4 to 0.85 | 2 to 5 nM | ≤ 1.24 | ≤ 1.24 | 1 to 1.15 | 1 to 1.15 |  |  |
| Cn1cnnc1C[C@]1(c2cccc(N3Cc4c(cc(CN5CCC6C(C5)C6(F)F)cc4C(F)(F)F)C3=O)c2)C[C@H](C#N)C1 (stereo partly drawn) [Compound 27, (1r,3r)-3-(3-(6-((7,7-difluoro-3-azabicyclo[4.1.0]heptan-3-yl)methyl)-1-oxo-4-(trifluoromethyl)isoindolin-2-yl)phenyl)-3-((4-methyl-4H-1,2,4-triazol-3-yl)methyl)cyclobutane-1-carbonitrile] | ≤ 15 | ≤ 15 | < 0.4 | 0.4 to 0.85 | 2 to 5 nM | ≤ 1.24 | ≤ 1.24 | ≤ 1 | ≤ 1 |  |  |
| CC1CCCCN(Cc2cc3c(c(C(F)(F)F)c2)CN(c2cccc([C@]4(Cc5nncn5C)C[C@@H](C#N)C4)c2)C3=O)C1 (stereo partly drawn) [Compound 25, (1r,3r)-3-((4-methyl-4H-1,2,4-triazol-3-yl)methyl)-3-(3-(6-((3-methylazepan-1-yl)methyl)-1-oxo-4-(trifluoromethyl)isoindolin-2-yl)phenyl)cyclobutane-1-carbonitrile] | > 20 | > 20 | > 0.85 | > 0.85 | < 1 nM | 1.24 to 1.39 | 1.24 to 1.39 | 1 to 1.15 | ≤ 1 | < 1 nM |  |
| C[C@@H]1C[C@H](C)CN(Cc2cc3c(c(C(F)(F)F)c2)CN(c2cccc([C@]4(Cc5nncn5C)C[C@@H](C#N)C4)c2)C3=O)C1 [Compound 18, (1R,3r)-3-(3-(6-(((3S,5R)-3,5-dimethylpiperidin-1-yl)methyl)-1-oxo-4-(trifluoromethyl)isoindolin-2-yl)phenyl)-3-((4-methyl-4H-1,2,4-triazol-3-yl)methyl)cyclobutane-1-carbonitrile] | > 20 | > 20 | > 0.85 | > 0.85 | < 1 nM | 1.24 to 1.39 | 1.24 to 1.39 | 1 to 1.15 | ≤ 1 |  |  |
| C[C@@H]1CN(Cc2cc(C(=O)Nc3cccc([C@]4(Cc5nncn5C)C[C@@H](C#N)C4)c3)nc(C3CC3)n2)CCC1(F)F [Compound 57, N-(3-((1r,3R)-3-cyano-1-((4-methyl-4H-1,2,4-triazol-3-yl)methyl)cyclobutyl)phenyl)-2-cyclopropyl-6-(((R)-4,4-difluoro-3-methylpiperidin-1-yl)methyl)pyrimidine-4-carboxamide] | 15 to 20 | > 20 | 0.4 to 0.85 | > 0.85 | < 1 nM | 1.24 to 1.39 | 1.24 to 1.39 | 1 to 1.15 | ≤ 1 |  |  |
| C[C@H]1CCCN(Cc2cc(C(=O)Nc3cccc([C@]4(Cc5nncn5C)C[C@@H](C#N)C4)c3)nc(C3CC3)c2)C1 [Compound 55, N-(3-((1r,3S)-3-cyano-1-((4-methyl-4H-1,2,4-triazol-3-yl)methyl)cyclobutyl)phenyl)-6-cyclopropyl-4-(((S)-3-methylpiperidin-1-yl)methyl)picolinamide] | > 20 | > 20 | > 0.85 | > 0.85 | < 1 nM | 1.24 to 1.39 | 1.24 to 1.39 | ≤ 1 | ≤ 1 |  |  |
| C[C@@H]1CN(Cc2cc3c(c(C(F)(F)F)c2)CN(c2cccc([C@]4(Cc5nncn5C)C[C@@](C)(C#N)C4)c2)C3=O)CCO1 [Compound 7, (1r,3r)-1-methyl-3-((4-methyl-4H-1,2,4-triazol-3-yl)methyl)-3-(3-(6-(((R)-2-methylmorpholino)methyl)-1-oxo-4-(trifluoromethyl)isoindolin-2-yl)phenyl)cyclobutane-1-carbonitrile] | ≤ 15 | ≤ 15 | < 0.4 | < 0.4 | 5 to 20 nM | ≤ 1.24 | 1.24 to 1.39 | ≤ 1 | ≤ 1 | 5 to 20 nM |  |
| C[C@H]1CCCN(Cc2cc3c(c(C4CC4)n2)CN(c2cccc([C@]4(Cc5nncn5C)C[C@@H](C#N)C4)c2)C3=O)C1 [Compound 40, (1r,3r)-3-(3-(4-cyclopropyl-6-(((S)-3-methylpiperidin-1-yl)methyl)-1-oxo-1,3-dihydro-2H-pyrrolo[3,4-c]pyridin-2-yl)phenyl)-3-((4-methyl-4H-1,2,4-triazol-3-yl)methyl)cyclobutane-1-carbonitrile] | ≤ 15 | 15 to 20 | 0.4 to 0.85 | > 0.85 | 1 to 2 nM | 1.24 to 1.39 | 1.24 to 1.39 | 1 to 1.15 | ≤ 1 | 1 to 2 nM |  |
| COCC1CCCCN(Cc2cc3c(c(C(F)(F)F)c2)CN(c2cccc([C@]4(Cc5nncn5C)C[C@@H](C#N)C4)c2)C3=O)C1 (stereo partly drawn) [Compound 45, (1r,3r)-3-(3-(6-((3-(methoxymethyl)azepan-1-yl)methyl)-1-oxo-4-(trifluoromethyl)isoindolin-2-yl)phenyl)-3-((4-methyl-4H-1,2,4-triazol-3-yl)methyl)cyclobutane-1-carbonitrile] | ≤ 15 | > 20 | 0.4 to 0.85 | > 0.85 | 2 to 5 nM | 1.24 to 1.39 | 1.24 to 1.39 | 1 to 1.15 | 1 to 1.15 | 2 to 5 nM |  |
| Cc1cc(C(=O)Nc2cccc([C@]3(Cc4nncn4C)C[C@H](C#N)C3)c2)nc(C2CC2)n1 [Compound 2, N-(3-((1s,3s)-3-cyano-1-((4-methyl-4H-1,2,4-triazol-3-yl)methyl)cyclobutyl)phenyl)-2-cyclopropyl-6-methylpyrimidine-4-carboxamide] | ≤ 15 | ≤ 15 | < 0.4 | < 0.4 |  | ≤ 1.24 | ≤ 1.24 | 1 to 1.15 | 1 to 1.15 | 2 to 5 nM | 2 to 5 nM |
| COCC1COCCN(Cc2cc3c(c(C(F)(F)F)c2)CN(c2cccc([C@]4(Cc5nncn5C)C[C@@H](C#N)C4)c2)C3=O)C1 (stereo partly drawn) [Compound 46, (1r,3r)-3-(3-(6-((6-(methoxymethyl)-1,4-oxazepan-4-yl)methyl)-1-oxo-4-(trifluoromethyl)isoindolin-2-yl)phenyl)-3-((4-methyl-4H-1,2,4-triazol-3-yl)methyl)cyclobutane-1-carbonitrile] | ≤ 15 | 15 to 20 | 0.4 to 0.85 | > 0.85 | 5 to 20 nM | > 1.39 | > 1.39 | > 1.15 | > 1.15 | 5 to 20 nM |  |
| Cn1cnnc1C[C@]1(c2cccc(N3Cc4c(cc(CN5CCCOCC5)cc4C(F)(F)F)C3=O)c2)C[C@H](C#N)C1 [Compound 29, (1r,3r)-3-(3-(6-((1,4-oxazepan-4-yl)methyl)-1-oxo-4-(trifluoromethyl)isoindolin-2-yl)phenyl)-3-((4-methyl-4H-1,2,4-triazol-3-yl)methyl)cyclobutane-1-carbonitrile] | ≤ 15 | ≤ 15 | < 0.4 | 0.4 to 0.85 | 2 to 5 nM | 1.24 to 1.39 | 1.24 to 1.39 | > 1.15 | 1 to 1.15 |  |  |
